Test results: patent publication US20170209448A1, “TREATMENT REGIMENS USING MULTIPLE PHARMACEUTICAL AGENTS” (INTELLIKINE LLC, priority 2011, published 2017)
Like-named read-outs stand apart in the source and are kept apart here.

Columns and labels:
[1] = tested on: PC3; experiment: PC3 tumor cell line proliferation assay; assay type: cell-based; conditions: Homo sapiens, PC-3
Method: The assay is performed in a 96 well microtiter plate using Alamar Blue reduction. […] A compound disclosed herein is diluted in Tumor Cell Media and added in a 10 ul volume. […] A volume of 10 uL of Alamar Blue reagent is added to each well and plates are incubated for 3 hours at 37 C and 5% CO2.

[2] = target: T1, mTORC (Homo sapiens, UniProt P42345); experiment: mTORC in vitro IC50 (Table 2); assay type: biochemical
T1 construct: purchased Invitrogen
Method: The compounds described herein and any other mTor inhibitors known in the art can be tested against recombinant mTOR (Invitrogen) in an assay containing 50 mM HEPES, pH 7.5, 1 mM EGTA, 10 mM MgCl2, 2.5 mM, 0.01% Tween, 10 μM ATP (2.5 μLCi of μ-32P-ATP), and 3 μg/mL BSA. Rat recombinant PHAS-1/4EBP1 (Calbiochem; 2 mg/mL) is used as a substrate. Reactions are terminated by spotting onto nitrocellulose, which is washed with 1M NaCl/1% phosphoric acid (approximately 6 times, 5-10 minutes each). Sheets are dried and the transferred radioactivity quantitated by phosphorimaging.
For instance, one can use Invitrogen's LanthaScreen™ Kinase assay to test the inhibitors of mTOR disclosed herein. This assay is a time resolved FRET platform that measures the phosphorylation of GFP labeled 4EBP1 by mTOR kinase. The kinase reaction is performed in a white 384 well microtitre plate. The total reaction volume is 20 ul per well and the reaction buffer composition is 50 mM HEPES pH7.5, 0.01% Polysorbate 20, 1 mM EGTA, 10 mM MnCl2, and 2 mM DTT. In the first step, each well receives 2 ul of test compound in 20% dimethylsulphoxide resulting in a 2% DMSO final concentration. Next, 8 ul of mTOR diluted in reaction buffer is added per well for a 60 ng/ml final concentration. To start the reaction, 10 ul of an ATP/GFP-4EBP1 mixture (diluted in reaction buffer) is added per well for a final concentration of 10 μM ATP and 0.5 μM GFP-4EBP1. The plate is sealed and incubated for 1 hour at room temperature. […] The plate is sealed, incubated for 1 hour at room temperature, and then read on a plate reader set up for LanthaScreen™ TR-FRET. Data is analyzed and IC50s are generated using GraphPad Prism 5.

[3] = tested on: A498 xenografts; experiment: Tumor hypoxia by pimonidazole staining in A498 xenografts; assay type: in vivo, Mice
Method: Mice bearing A498 xenografts were treated as shown below in Table 5 for 6 weeks or cycles (each cycle consisting of 7 days). During cycle 6, mice were sacrificed 2 hours after dosing. Pimonidazole hydrochloride, which binds to proteins in hypoxia conditions, was injected intraperitoneally 60 minutes before the tumor was harvested. Tumors were collected either at 2 hr of vehicle (Groups A, C, and D), Compound A (Groups B, C, and E) or sorafenib (Group D) dosing. Tumor tissues were formalin fixed and paraffin embedded. Tissue sections were stained with anti-pimonidazole antibody and visualized with DAB (dark brown).

[4] = Table 2, read-out: PC3 proliferation

T1 sequence (P42345 1360-2549 limits assumed): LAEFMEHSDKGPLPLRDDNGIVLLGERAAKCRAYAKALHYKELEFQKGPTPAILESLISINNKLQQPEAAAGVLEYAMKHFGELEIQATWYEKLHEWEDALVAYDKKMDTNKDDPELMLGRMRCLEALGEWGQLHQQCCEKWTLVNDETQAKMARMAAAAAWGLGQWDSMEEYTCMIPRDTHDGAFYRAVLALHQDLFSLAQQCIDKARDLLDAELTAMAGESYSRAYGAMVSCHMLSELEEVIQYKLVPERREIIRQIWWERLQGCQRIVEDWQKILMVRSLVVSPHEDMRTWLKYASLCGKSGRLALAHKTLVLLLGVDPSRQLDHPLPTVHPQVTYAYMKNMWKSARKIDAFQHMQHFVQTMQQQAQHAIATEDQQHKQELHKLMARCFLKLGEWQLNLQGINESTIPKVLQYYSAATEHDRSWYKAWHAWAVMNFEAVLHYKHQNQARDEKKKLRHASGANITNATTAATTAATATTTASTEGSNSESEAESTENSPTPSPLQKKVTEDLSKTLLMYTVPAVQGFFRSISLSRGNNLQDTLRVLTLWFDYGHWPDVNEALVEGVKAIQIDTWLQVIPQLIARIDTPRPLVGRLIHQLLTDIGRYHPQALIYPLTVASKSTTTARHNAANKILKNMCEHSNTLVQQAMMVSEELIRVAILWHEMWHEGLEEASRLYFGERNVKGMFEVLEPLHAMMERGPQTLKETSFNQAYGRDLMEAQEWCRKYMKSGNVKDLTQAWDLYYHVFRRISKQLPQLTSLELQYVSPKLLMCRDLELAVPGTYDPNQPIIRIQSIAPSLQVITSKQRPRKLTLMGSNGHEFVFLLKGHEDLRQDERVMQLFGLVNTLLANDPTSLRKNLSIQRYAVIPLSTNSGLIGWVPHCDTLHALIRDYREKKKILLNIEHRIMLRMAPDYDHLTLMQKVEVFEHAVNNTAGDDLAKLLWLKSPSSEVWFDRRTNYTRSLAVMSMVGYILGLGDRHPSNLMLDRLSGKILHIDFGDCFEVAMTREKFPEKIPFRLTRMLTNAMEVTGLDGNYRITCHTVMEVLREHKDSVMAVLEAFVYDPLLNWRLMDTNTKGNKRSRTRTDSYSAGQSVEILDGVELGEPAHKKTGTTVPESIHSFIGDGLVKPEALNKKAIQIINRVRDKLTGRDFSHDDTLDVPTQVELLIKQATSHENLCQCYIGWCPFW

Compound	IC50 [2]	other results
CC(=O)Nc1nc2cc(-c3nn(C(C)C)c4ncnc(N)c34)ccc2o1 [Compound 2]	–	IC50 ([1]; Table 1, read-out: PC3 IC50): < 1000 nM
CC(C)n1nc(-c2cc3cc(F)ccc3[nH]2)c2c(N)ncnc21 [Compound 3]	< 500 nM	–
CC(C)n1nc(-c2ccc3nc(N)oc3c2)c2c(N)ncnc21 [Compound 4]	–	IC50 ([1]; Table 1, read-out: PC3 IC50): < 10000 nM
Nc1nc2cc(-c3nn(C4CCOCC4)c4ncnc(N)c34)ccc2o1 [Compound 5]	–	IC50 ([1]; Table 1, read-out: PC3 IC50): < 100 nM
Nc1nc2cc(-c3nn(C4CCC(N5CCOCC5)CC4)c4ncnc(N)c34)ccc2o1 (stereo not drawn) [Compound 6]	–	IC50 ([1]; Table 1, read-out: PC3 IC50): < 1000 nM
CC(=O)N1CCC(n2nc(-c3ccc4oc(N)nc4c3)c3c(N)ncnc32)CC1 [Compound 7]	–	IC50 ([1]; Table 1, read-out: PC3 IC50): < 10000 nM
CC(C)n1nc(-c2cc3ccccc3[nH]2)c2c(N)ncnc21 [Compound 7]	< 100 nM	–
CC(C)n1cc(-c2ccc3oc(N)nc3c2)c2c(N)ncnc21 [Compound 8]	–	IC50 ([1]; Table 1, read-out: PC3 IC50): < 100 nM
CC(C)n1nc(-c2cc3c(Cl)cccc3[nH]2)c2c(N)ncnc21 [Compound 9]	< 50 nM	–
Nc1nc2cc(-c3cn(C4CCOCC4)c4ncnc(N)c34)ccc2o1 [Compound 9]	–	IC50 ([1]; Table 1, read-out: PC3 IC50): < 100 nM
CC(C)n1nc(-c2ccc3onc(N)c3c2)c2c(N)ncnc21 [Compound 10]	–	IC50 ([1]; Table 1, read-out: PC3 IC50): > 10000 nM
COc1cccc2cc(-c3nn(C(C)C)c4ncnc(N)c34)[nH]c12 [Compound 10]	< 25 nM	–
CC(=O)Nc1noc2cc(-c3nn(C(C)C)c4ncnc(N)c34)ccc12 [Compound 11]	–	IC50 ([1]; Table 1, read-out: PC3 IC50): > 10000 nM
CC(C)n1nc(-c2ccc3c(N)noc3c2)c2c(N)ncnc21 [Compound 12]	–	IC50 ([1]; Table 1, read-out: PC3 IC50): > 10000 nM
Nc1ncnc2c1c(-c1cc3cc(O)ccc3[nH]1)nn2C1CCCC1 [Compound 12]	< 10 nM	–
CC(C)n1nc(-c2cc3ccc(O)cc3[nH]2)c2c(N)ncnc21 [Compound 21]	< 50 nM	–
CC(C)n1nc(-c2cc3ccc(C#N)cc3[nH]2)c2c(N)ncnc21 [Compound 24]	–	IC50 [1, 4]: > 500 nM
CC(C)n1nc(-c2cc3ccc(C(N)=O)cc3[nH]2)c2c(N)ncnc21 [Compound 25]	< 500 nM	IC50 [1, 4]: > 500 nM
Nc1ncnc2c1c(-c1cc3cc(O)ccc3[nH]1)nn2C1CCCCC1 [Compound 26]	< 10 nM	–
Nc1ncnc2c1c(-c1cc3cc(O)ccc3[nH]1)nn2C1CCC1 [Compound 27]	< 25 nM	–
CCOC(=O)Cn1nc(-c2cc3cc(O)ccc3[nH]2)c2c(N)ncnc21 [Compound 28]	< 500 nM	–
CC(=O)N1CCC(n2nc(-c3cc4cc(O)ccc4[nH]3)c3c(N)ncnc32)CC1 [Compound 30]	< 25 nM	–
Nc1ncnc2c1c(-c1cc3cc(O)ccc3[nH]1)nn2C1CCN(C(=O)C2CC2)CC1 [Compound 31]	< 25 nM	–

Compound	IC50 [2]	other results
CC(C)n1nc(-c2cc3cc(O)c(Cl)cc3[nH]2)c2c(N)ncnc21 [Compound 32]	< 500 nM	–
Nc1ncnc2c1c(-c1cc3cc(O)ccc3[nH]1)nn2CCN1CCOCC1 [Compound 33]	< 500 nM	–
Nc1ncnc2c1c(-c1cc3cccc(O)c3[nH]1)nn2C1CCCC1 [Compound 36]	< 10 nM	–
Nc1ncnc2c1c(-c1cc3cc(O)ccc3[nH]1)nn2Cc1cccnc1 [Compound 38]	< 500 nM	–
CC(C)n1nc(-c2cc3c(Cl)ccc(O)c3[nH]2)c2c(N)ncnc21 [Compound 39]	< 10 nM	–
COCCn1nc(-c2cc3cc(O)ccc3[nH]2)c2c(N)ncnc21 [Compound 40]	< 100 nM	–
Nc1ncnc2c1c(-c1cc3cccc(O)c3[nH]1)nn2C1CCN(C(=O)C2CC2)CC1 [Compound 41]	< 10 nM	–
Cc1nccn1CCn1nc(-c2cc3cc(O)ccc3[nH]2)c2c(N)ncnc21 [Compound 44]	< 100 nM	–
Nc1ncnc2c1c(-c1cc3c(Cl)cccc3[nH]1)nn2C1CCOCC1 [Compound 48]	< 50 nM	–
Nc1ncnc2c1c(-c1cc3cc(O)ccc3[nH]1)nn2C1CC(N2CCOCC2)C1 (stereo not drawn) [Compound 49]	< 10 nM	–
CC(C)n1nc(-c2cc3cccc(Cl)c3[nH]2)c2c(N)ncnc21 [Compound 50]	< 50 nM	–
Nc1ncnc2c1c(-c1cc3cccc(Cl)c3[nH]1)nn2C1CCOCC1 [Compound 51]	< 50 nM	–
CN1CCN(C2CC(n3nc(-c4cc5cc(O)ccc5[nH]4)c4c(N)ncnc43)C2)CC1 (stereo not drawn) [Compound 52]	< 500 nM	–
Nc1ncnc2c1c(-c1cc3cc(O)ccc3[nH]1)nn2C1CC(=O)C1 [Compound 53]	< 100 nM	–
Nc1ncnc2c1c(-c1cc3cc(O)ccc3[nH]1)nn2C1CC(O)C1 (stereo not drawn) [Compound 54]	< 25 nM	–
CC(C)N1CCC(n2nc(-c3cc4cc(O)ccc4[nH]3)c3c(N)ncnc32)CC1 [Compound 55]	< 500 nM	–
Nc1ncnc2c1c(-c1cc3cc(O)ccc3[nH]1)nn2C1CCC(N2CCOCC2)CC1 (stereo not drawn) [Compound 57]	< 25 nM	–
Nc1ncnc2c1c(-c1cc3ccc(O)cc3[nH]1)nn2C1CCOCC1 [Compound 60]	< 100 nM	–
COc1ccc(Cl)c2cc(-c3nn(C4CCOCC4)c4ncnc(N)c34)[nH]c12 [Compound 61]	< 25 nM	–
CC(C)N1CCC(n2nc(-c3cc4cccc(O)c4[nH]3)c3c(N)ncnc32)CC1 [Compound 64]	< 25 nM	–
CC(=O)N1CCC(n2nc(-c3cc4ccc(O)cc4[nH]3)c3c(N)ncnc32)CC1 [Compound 65]	< 10 nM	–
CC(C)N1CCC(n2nc(-c3cc4c(Cl)ccc(O)c4[nH]3)c3c(N)ncnc32)CC1 [Compound 71]	< 100 nM	–
CNC(=O)c1cc(Oc2ccc(NC(=O)Nc3ccc(Cl)c(C(F)(F)F)c3)cc2)ccn1 [Sorafenib, sorafenib]	–	tumor hypoxia (anti-pimonidazole staining) ([3]; 6 cycles, doses and schedules of Table 5 (Compound A 1 mg/kg PO QD or 3QW; Sorafenib 40 mg/kg IP 4QW; alternating 3QW/4QW), tumor 2 hr after dosing): caused necrosis and cells surrounding the necrosis area appear pimonidazole positive; tumor hypoxia (anti-pimonidazole staining), off phase ([3]; intermittent dosing (Table 5), off phase of the cycle): pimonidazole staining intensity was reduced
